Where two headings read alike, the source gives them in different places.
What was measured:
C57BL/6 T cells = assay: Mouse mixed lymphocyte reaction (CFSE-labeled C57BL/6 spleen cells vs irradiated BALB/c splenocytes); type: cell-based; conditions: sorafenib: at concentration near the steady-state plasma level of treated patients
Procedure: CFSE-labeled spleen cells from C57BL/6 (H2-b) mice were co-cultured with irradiated splenocytes from BALB/c (H2-d) mice, resulting in the strong allogenic response and proliferation of the C57BL/6 T cells against H2-d MHC molecules. The proliferation of the T cells results in a diminished CFSE staining of the divided cells. Percentage of divided cells and their number of divisions can be analyzed by flow cytometry.
Spleen cells were prepared from 1 C57BL/6 mouse and 1 BALB/c mouse (Harlan Winkelmann GmbH, Borchen, Germany). BALB/c cells were irradiated with 33 Gy. Effectors (C57BL/6) were adjusted to 20 Mio cells/ml. A 2 mM 5(6)-Carboxyfluorescindiacetate-N-succinimidylester (CFSE, Fluka, Buchs, Switzerland) solution in PBS was freshly prepared from a 10 mM DMSO stock solution. The cell suspension was mixed 1:1 with the CFSE solution. After incubation at 37° C. for 4 min, reaction was stopped by addition of fetal calf serum (Biochrom, Berlin, Germany), and free CFSE was washed out. 2×10^5 stimulator cells (BALB/c) were plated into cavities of a 96-well round-bottom plate. 1×10^5 or 2×10^5 CFSE-labeled effector cells and tyrosine kinase inhibitors at two different concentrations were added. Appropriate positive and negative controls were included. All cultures were in 200 μl T-cell medium with 0.1% (v/v) DMSO for 5 or 7 days without further medium change. Thereafter, cells were stained with fluorescently labelled anti-CD4-PerCP and anti-CD8-FITC antibodies (both BD Biosciences, Heidelberg, Germany) and analyzed by flow cytometry.
The experiment described above was repeated with the exception that a 96-well flat-bottom plate was used for mixed lymphocyte reactions (MLRs), a syngenic control with irradiated C57BL/6 cells was included, more concentrations of inhibitors were assessed, and all groups were analyzed in triplicates.
During cultivation, half of the medium was replaced with fresh appropriate medium supplemented with final concentrations of tyrosine kinase inhibitors every day, and proliferation was analyzed at day 7 only. Additionally cells were stained for H2-Kb to clearly identify effector cells in a further dimension.

[1] = system: HLA-A*02+ PBMCs (CD4+ and CD8+ effector cells); conditions: HLA-mismatched target cells, seven days, increasing TKI concentrations
Procedure: Two fresh buffy coat (HLA-A*02+ and HLA-A*02−) were obtained from the Katharinenhospital Stuttgart. PBMCs were isolated by standard density gradient isolation and incubated overnight in T-cell medium (TCM) for human in vitro priming as in WP03 #4. Ca2+ and Mg2+ free PBS (Cambrex) washed HLA-A*02+ PBMCs were labeled at 1×10^7 cells/ml with 1 μM CFSE (Fluka, Buchs, Germany) at 37° C. for 4 minutes. Labeling was stopped by adding the same volume heat inactivated FCS (Invitrogen) and labeled cells were washed in TCM. Irradiation of target or feeder cells, if indicated, was performed at 33 Gy using a 1000 Elite gammacell (MDS Nordion, Ottawa, Canada). Stock solutions of sorafenib tosylate and sunitinib malate were prepared in DMSO (Merck, Darmstadt, Germany) and frozen aliquoted at −80° C. Mixed lymphocyte reactions were performed by coculturing 2×10^5 CFSE labeled effector plus 2×10^5 irradiated target cells as indicated per well of 96 well round bottom plates in 200 μl TCM in the presence of indicated concentrations of sorafenib, sunitinib or DMSO at 37° C. and 5% CO2 (day 1). On day 4, 100 μl supernatant was removed and 100 μl TCM supplemented with the original concentration of TKIs was added. […] Cells were washed, fixed in PFEA containing 1% formaldehyde (Fluka) and analyzed on a FACSCalibur (BD). […]

[2] = system: OVA-001 specific CD8+ T-cells; type: in vivo, C57BL/6 mice; conditions: continuous treatment, OVA-001 immunized
[3] = Procedure: Female C57BL/6 mice (20-25 g, Harlan Winkelmann GmbH, Borchen, Germany) were used for all experiments described in this section. Animals were kept in the animal facility of the Dept. of Immunology at the University of Tuebingen. Animals were cared for by trained animal keepers and health status of animals was supervised by the veterinaries of the University of Tübingen. Feeding with drug was also performed in part by the local animal keepers after special training. All animals were supplied with water and food ad libitum. The described experiments were performed according to procedure no. IM1/06 approved by the Regierungsprasidium Tuebingen.
A liquid, viscous vehicle composed of 30% (w/v) Cremophor EL (Sigma, Deisenhofen, Germany), 30% (w/v) PEG 400 (Sigma, Deisenhofen, Germany), 10% ethanol p.a., 10% glucose was used. Sunitinib and sorafenib were suspended in vehicle according to the planned dosages in a way that […] body weight had to be applied to all mice, according to approx. 50 μl of suspension. Feasible aliquots were prepared from suspensions and from vehicle and stored until use at −20° C. in the dark. Thawed substance was stored at 4° C. and used within the next three days. Animals were weighed before start of treatment and thereafter weekly. The deduced dosage was applied daily using a 1 ml syringe with gavage into the backward cavity of the mouth of the animal without anesthesia. Drug delivery into blood plasma was controlled as described in example 1.
1) Immunization under continuous treatment with tyrosine kinase inhibitors. Pretreatment phase was two weeks (see FIG. 5A). […]
3) The experimental design was identical to a) Beside negative and positive control groups, groups treated with 60 mg/kg body weight sorafenib, and 20 and 40 mg/kg body weight sunitinib were included (6 mice per group). For spleen cells, CD4, Tregs, CD8 cells, and B cells were assessed, for PBMCs CD4, CD8, B cells and Tregs were analyzed.

[4] = HPLC quantification of TKI plasma levels in mouse models; type: in vivo; conditions: oral dosing
Procedure: The proteins were precipitated with 40 μl 100% acetonitril (Acros, Geel, Belgium), centrifuged and filtered through a 0.2 μm PVDF filter. 10 μl was directly injected to the HPLC system.
The HPLC system consisted of a Binary HPLC pump (Shimadzu LC10aVP), a Shimadzu SIL-10aVP autosampler, a Shimadzu CTO-10asVP column oven and a Shimadzu SPD10aVP detector. Data acquisition and analysis was performed using the Shimadzu Class-VP 7.3 software. Chromatographic separation was carried out on a reverse phase C18 column (Reprosil Pur ODS-3μ, 60×2 mm). To protect the analytical column a guard column has been used (Reprosil Pur ODS-5μ, 10×2 mm). Eluent A consisted of water (LCMS grade, Acros, Geel, Belgium), modified by 0.1% formic acid (Merck, Darmstadt, Germany) and eluent B was 80% acetonitril (Acros, Geel, Belgium) with 0.1% formic acid (Merck, Darmstadt, Germany).
The following gradient was used: 5 min 25% eluent B, 15 min 62.5% eluent B, 6 min 80% eluent B and 5 min 80% eluent B. The temperature of the autosampler was kept at 4° C. The temperature of the column was maintained at 30° C. The detection wavelength was set at 400 nm, the injection volume was 10 μl. The column was equilibrated with the mobile phase at a flow rate 0.5 ml/min.
For Sorafenib analysis, 10 μl of 50% acetonitril (Acros, Geel, Belgium) was added to 50 serum or medium in 0.5 ml PCR tubes and mixed for 10 seconds. […]

A498 tumor cells = conditions: A498, 24 h; 13 μM sorafenib or 250 nM sunitinib; normal medium control = 100%

CCN(CC)CCNC(=O)c1c(C)[nH]c(/C=C2\C(=O)Nc3ccc(F)cc32)c1C [Sunitinib]
Drug-related toxicity for cells in mixed lymphocyte reactions (summary) (C57BL/6 T cells): no drug-related toxicity was observed | Proliferation of CD8+ and CD4+ effector cells [1]: No effect | OVA-001 specific CD8+ T-cells, mean ([2]; 20 mg/kg bw, n=12): 3.47% | OVA-001 specific CD8+ T-cells, mean ([2]; 40 mg/kg bw, n=6): 2.73% | OVA-001 specific CD8+ T-cells, mean ([2]; 80 mg/kg bw, n=2): 0.51% | Deaths ([3]; 80 mg/kg sunitinib, experiment one): 2 out of 6 | Inflamed lesions of injections sites ([3]; mouse, in vivo): frequently observed | Bioavailability / plasma levels at the used doses [4]: confirmed to reach plasma levels shown by others to be effective in tumor growth inhibition | % Expression relative to control: ADFP (A498 tumor cells): 87% | % Expression relative to control: APOL1 (A498 tumor cells): 62% | % Expression relative to control: CCND1 (A498 tumor cells): 93% | % Expression relative to control: GUCY1A3 (A498 tumor cells): 57% | % Expression relative to control: HLA-A (A498 tumor cells): 93% | % Expression relative to control: HLA-B (A498 tumor cells): 76% | % Expression relative to control: HLA-C (A498 tumor cells): 87% | % Expression relative to control: MET (A498 tumor cells): 41% | % Expression relative to control: MMP7 (A498 tumor cells): 31% | % Expression relative to control: MUC1 (A498 tumor cells): 54% | % Expression relative to control: PSMB8 (A498 tumor cells): 87% | % Expression relative to control: PSMB9 (A498 tumor cells): 132% | % Expression relative to control: TAP1 (A498 tumor cells): 123%

— patent US9308244B2, “Combination therapy using active immunotherapy” (immatics Biotechnologies GmbH, priority 2007, dated 2016)
